One may read the IC50 as the midpoint of a concentration-inhibition curve. Read a low IC50 as higher potency.

Some results are limits rather than exact numbers.

In this experiment the target is T1, human PKCθ full length enzyme (Homo sapiens, UniProt Q04759).
T1 construct: human PKCθ full length enzyme (Panvera Catalog No. P2996); purchased Panvera P2996
T1 sequence (Q04759 whole entry): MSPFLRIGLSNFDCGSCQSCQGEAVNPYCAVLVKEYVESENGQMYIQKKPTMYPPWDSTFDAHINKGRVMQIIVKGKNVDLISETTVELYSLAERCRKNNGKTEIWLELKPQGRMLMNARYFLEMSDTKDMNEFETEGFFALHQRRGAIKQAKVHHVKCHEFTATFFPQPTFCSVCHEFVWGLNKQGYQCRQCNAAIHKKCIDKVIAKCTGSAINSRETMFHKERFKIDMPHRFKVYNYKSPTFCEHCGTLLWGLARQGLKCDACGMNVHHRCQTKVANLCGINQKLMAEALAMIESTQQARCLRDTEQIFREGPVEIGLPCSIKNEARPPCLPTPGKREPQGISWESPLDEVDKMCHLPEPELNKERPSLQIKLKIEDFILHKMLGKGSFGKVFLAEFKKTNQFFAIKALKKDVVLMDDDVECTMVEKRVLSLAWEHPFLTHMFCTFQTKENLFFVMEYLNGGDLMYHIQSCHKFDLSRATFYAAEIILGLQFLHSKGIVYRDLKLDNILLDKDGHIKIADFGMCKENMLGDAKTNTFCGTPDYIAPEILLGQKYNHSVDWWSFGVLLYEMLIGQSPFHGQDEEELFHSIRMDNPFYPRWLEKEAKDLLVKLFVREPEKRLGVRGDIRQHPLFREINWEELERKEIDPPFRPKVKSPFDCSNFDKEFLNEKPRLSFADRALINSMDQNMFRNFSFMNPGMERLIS
Description: PKCθ IMAP Assay. In kind it is biochemical. The note with it: average value when one or more samples were tested; ATP 6 uM, PKCθ 1 nM. On the procedure:
The materials used include the following: human PKCθ full length enzyme (Panvera Catalog No. P2996); substrate peptide: 5FAM-[…]-OH (Molecular Devices, RP7032); ATP (Sigma Cat # A2383); DTT (Pierce, 20291); 5× kinase reaction buffer (Molecular Devices, R7209); 5× binding buffer A (Molecular Devices, R7282), 5× binding buffer B (Molecular Devices, R7209); IMAP Beads (Molecular Devices, R7284); and 384-well plates (Corning Costar, 3710).
The reaction buffer was prepared by diluting the 5× stock reaction buffer and adding DTT to obtain a concentration of 3.0 mM. The binding buffer was prepared by diluting the 5× binding buffer A. A master mix solution was prepared using a 90% dilution of the reaction buffer containing 2×ATP (12 uM) and 2× peptide ([…]). […] The final concentration of compound was 2× and 10% DMSO. DMSO was added to the rest of the master mix to increase the concentration to 10%. 10 ul of the master mix containing 10% DMSO was added to the rest of the wells on the plate except the 2nd column. 20 ul was transferred from the first column to the 2nd column. The compounds were serially diluted in 2:1 ratio starting from the 2nd column. A 2× (2 nM) PKCθ solution was made in the reaction buffer. 10 ul of the PKCθ solution was added to every well to achieve these final concentrations: PKCθ—1 nM; ATP—6 uM; peptide—100 nM; DMSO—5%. Samples were incubated for 25 minutes at room temperature. The binding reagent was prepared by diluting the beads in 1× binding buffer to 800:1. 50 ul of the binding reagent was added to every well and incubated for 20 minutes. FP was measured using Envision2100 (PerkinElmer Life Sciences). Wells with no ATPs and wells with no enzymes were used as controls.
`N#Cc1cnc2sc(-c3cccc(CN4CCC(CO)CC4)c3)cc2c1Nc1ccc2[nH]ccc2c1` [Compound 174, 2-(3-{[4-(hydroxymethyl)piperidin-1-yl]methyl}phenyl)-4-(1H-indol-5-ylamino)thieno[2,3-b]pyridine-5-carbonitrile] had an IC50 of 240 nM.
As for `N#Cc1cnc2sc(-c3cccc(CN4CCN(CCn5ccnc5)CC4)c3)cc2c1Nc1ccc2[nH]ccc2c1` [Compound 175, 2-[3-({4-[2-(1H-imidazol-1-yl)ethyl]piperazin-1-yl}methyl)phenyl]-4-(1H-indol-5-ylamino)thieno[2,3-b]pyridine-5-carbonitrile], the figure is 280 nM; as for `N#Cc1cnc2sc(-c3cccc(CN4CCC(O)CC4)c3)cc2c1Nc1ccc2[nH]ccc2c1` [Compound 176, 2-{3-[(4-hydroxypiperidin-1-yl)methyl]phenyl}-4-(1H-indol-5-ylamino) thieno[2,3-b]pyridine-5-carbonitrile], 170 nM.
As for `N#Cc1cnc2sc(-c3cccc(CN4CCC(CCO)CC4)c3)cc2c1Nc1ccc2[nH]ccc2c1` [Compound 177, 2-(3-{[4-(2-hydroxyethyl)piperidin-1-yl]methyl}phenyl)-4-(1H-indol-5-ylamino)thieno[2,3-b]pyridine-5-carbonitrile], the figure is 170 nM; as for `COCCN1CCN(Cc2cccc(-c3cc4c(Nc5ccc6[nH]ccc6c5)c(C#N)cnc4s3)c2)CC1` [Compound 178, 4-(1H-indol-5-ylamino)-2-(3-{[4-(2-methoxyethyl)piperazin-1-yl]methyl}phenyl)thieno[2,3-b]pyridine-5-carbonitrile], 300 nM; as for `N#Cc1cnc2sc(-c3cccc(CNCC4CCCO4)c3)cc2c1Nc1ccc2[nH]ccc2c1` (stereo not drawn) [Compound 179, 4-(1H-indol-5-ylamino)-2-(3-{[(tetrahydrofuran-2-ylmethyl)amino]methyl}phenyl) thieno[2,3-b] pyridine-5-carbonitrile], 150 nM.
As for `N#Cc1cnc2sc(-c3cccc(CNCCCN4CCOCC4)c3)cc2c1Nc1ccc2[nH]ccc2c1` [Compound 180, 4-(1H-indol-5-ylamino)-2-(3-{[(3-morpholin-4-ylpropyl)amino]methyl}phenyl)thieno[2,3-b]pyridine-5-carbonitrile], the figure is 110 nM.
Compound `N#Cc1cnc2sc(-c3cccc(CN4CCN(CCOCCO)CC4)c3)cc2c1Nc1ccc2[nH]ccc2c1` [Compound 181, 2-[3-({4-[2-(2-hydroxyethoxy)ethyl]piperazin-1-yl}methyl)phenyl]-4-(1H-indol-5-ylamino)thieno[2,3-b]pyridine-5-carbonitrile] showed an IC50 of 180 nM.
As for `N#Cc1cnc2sc(-c3cccc(CN4CCCCC4CO)c3)cc2c1Nc1ccc2[nH]ccc2c1` (stereo not drawn) [Compound 182], the figure is 130 nM; as for `N#Cc1cnc2sc(-c3cccc(CNCCOCCO)c3)cc2c1Nc1ccc2[nH]ccc2c1` [Compound 183, 2-[3-({[2-(2-hydroxyethoxy)ethyl]amino}methyl)phenyl]-4-(1H-indol-5-ylamino)thieno[2,3-b]pyridine-5-carbonitrile], 79 nM; as for `N#Cc1cnc2sc(-c3cccc(CO)c3)cc2c1Nc1cccc2[nH]ccc12` [Compound 193, 2-[3-(hydroxymethyl)phenyl]-4-(1H-indol-4-ylamino)thieno[2,3-b]pyridine-5-carbonitrile], 53 nM.
As for `CN(C)C(=O)c1cccc(-c2cc3c(Nc4cccc5[nH]ccc45)c(C#N)cnc3s2)c1` [Compound 194, 3-[5-cyano-4-(1H-indol-4-ylamino)thieno[2,3-b]pyridine-2-yl]-N,N-dimethylbenzamide], the figure is 120 nM; as for `CN(C)C(=O)c1cccc(-c2cc3c(Nc4ccc5[nH]ccc5c4)c(C#N)cnc3s2)c1` [Compound 195, 3-[5-cyano-4-(1H-indol-5-ylamino)thieno[2,3-b]pyridine-2-yl]-N,N-dimethylbenzamide], 420 nM; as for `N#Cc1cnc2sc(-c3cccc(CN)c3)cc2c1Nc1ccc2[nH]ccc2c1` [Compound 196, 2-[3-(aminomethyl)phenyl]-4-(1H-indol-5-ylamino)thieno[2,3-b]pyridine-5-carbonitrile], 38 nM.
Regarding `CN(C)c1cccc(-c2cc3c(Nc4ccc5[nH]ccc5c4)c(C#N)cnc3s2)c1` [Compound 197, 2-[3-(dimethylamino)phenyl]-4-(1H-indol-5-ylamino)thieno[2,3-b]pyridine-5-carbonitrile], the IC50 was 480 nM.
As for `CNS(=O)(=O)c1ccc(-c2cc3c(Nc4ccc5[nH]ccc5c4)c(C#N)cnc3s2)cc1` [Compound 198, 4-[5-cyano-4-(1H-indol-5-ylamino)thieno[2,3-b]pyridin-2-yl]-N-methylbenzenesulfonamide], the figure is 59 nM; as for `Cc1c(Nc2c(C#N)cnc3sc(-c4cccc(C=O)c4)cc23)ccc2[nH]ccc12` [Compound 201, 2-(3-formylphenyl)-4-[(4-methyl-1H-indol-5-yl)amino]thieno[2,3-b]pyridine-5-carbonitrile], 16 nM; as for `COc1ccc(C=O)cc1-c1cc2c(Nc3ccc4[nH]ccc4c3)c(C#N)cnc2s1` [Compound 202, 2-(5-formyl-2-methoxyphenyl)-4-(1H-indol-5-ylamino)thieno[2,3-b]pyridine-5-carbonitrile], 100 nM.
As for `CN(C)Cc1cc(-c2cc3c(Nc4ccc5[nH]ccc5c4)c(C#N)cnc3s2)cs1` [Compound 212, 2-{5-[(dimethylamino)methyl]-3-thienyl}-4-(1H-indol-5-ylamino)thieno[2,3-b]pyridine-5-carbonitrile], the figure is 37 nM.
As for `CN(C)Cc1cccc(C#Cc2cc3c(Nc4cccc5[nH]ccc45)c(C#N)cnc3s2)n1` [Compound 219, 2-({6-[(dimethylamino)methyl]pyridin-2-yl}ethynyl)-4-(1H-indol-4-ylamino)thieno[2,3-b]pyridine-5-carbonitrile], the figure is 84 nM; as for `Cc1c(Nc2c(C#N)cnc3sc(C#Cc4cccc(CN(C)C)n4)cc23)ccc2[nH]ccc12` [Compound 220, 2-({6-[(dimethylamino)methyl]pyridin-2-yl}ethynyl)-4-(4-methyl-1H-indol-5-ylamino)thieno[2,3-b]pyridine-5-carbonitrile], 14 nM; as for `N#Cc1cnc2sc(C#Cc3cnc(N)nc3)cc2c1Nc1ccc2[nH]ccc2c1` [Compound 228, 2-[(2-aminopyrimidin-5-yl)ethynyl]-4-(1H-indol-5-ylamino)thieno[2,3-b]pyridine-5-carbonitrile], > 1500 nM.
`CN(C)Cc1ccc(C#Cc2cc3c(Nc4ccc5[nH]ccc5c4)c(C#N)cnc3s2)nc1` [Compound 229, 2-({5-[(dimethylamino)methyl]pyridin-2-yl}ethynyl)-4-(1H-indol-5-ylamino) thieno[2,3-b]pyridine-5-carbonitrile] had an IC50 of 790 nM.
In turn, `CNS(=O)(=O)c1ccc(-c2cc3c(Nc4ccc5[nH]ccc5c4C)c(C#N)cnc3s2)cc1` [Compound 230, 4-{5-cyano-4-[(4-methyl-1H-indol-5-yl)amino]thieno[2,3-b]pyridin-2-yl}-N-methylbenzenesulfonamide] showed an IC50 of 9 nM.
As for `CN(C)S(=O)(=O)c1ccc(-c2cc3c(Nc4ccc5[nH]ccc5c4)c(C#N)cnc3s2)cc1` [Compound 231, 4-[5-cyano-4-(1H-indol-5-ylamino)thieno[2,3-b]pyridin-2-yl]-N,N-dimethylbenzenesulfonamide], the figure is 210 nM; as for `N#Cc1cnc2sc(-c3ccc(S(=O)(=O)NCCO)cc3)cc2c1Nc1ccc2[nH]ccc2c1` [Compound 232, 4-[5-cyano-4-(1H-indol-5-ylamino)thieno[2,3-b]pyridin-2-yl]-N-(2-hydroxyethyl)benzenesulfonamide], 340 nM.
In the case of `N#Cc1cnc2sc(-c3ccc(S(=O)(=O)NC4CCCCC4)cc3)cc2c1Nc1ccc2[nH]ccc2c1` [Compound 233, 4-[5-cyano-4-(1H-indol-5-ylamino)thieno[2,3-b]pyridin-2-yl]-N-cyclohexylbenzenesulfonamide], it took 40000 nM to reach half-maximal inhibition (IC50).
As for `CS(=O)(=O)c1ccc(-c2cc3c(Nc4ccc5[nH]ccc5c4)c(C#N)cnc3s2)cc1` [Compound 234, 4-(1H-indol-5-ylamino)-2-[4-(methylsulfonyl)phenyl]thieno[2,3-b]pyridine-5-carbonitrile], the figure is 130 nM.
As for `CS(=O)(=O)Nc1ccc(-c2cc3c(Nc4ccc5[nH]ccc5c4)c(C#N)cnc3s2)cc1` [Compound 235, N-{4-[5-cyano-4-(1H-indol-5-ylamino)thieno[2,3-b]pyridin-2-yl]phenyl}methanesulfonamide], the figure is 1200 nM; as for `Cc1c(Nc2c(C#N)cnc3sc(-c4ccc(S(=O)(=O)N(C)C)cc4)cc23)ccc2[nH]ccc12` [Compound 236, 4-{5-cyano-4-[(4-methyl-1H-indol-5-yl)amino]thieno[2,3-b]pyridin-2-yl}-N,N-dimethylbenzenesulfonamide], 20 nM.

The values are drawn from US20070082880A1 (priority 2005, published 2007).
